Data published in PMC11532494 (Nature Communications, 2024).
Values joined by “and” are separate entries in the source; they are usually repeats but may differ in a detail not shown here. Equal entries are not always repeated. Where two headings read alike, the source gives them in different places. No end group written: not given here. *: point of attachment. AMC = Cc1cc(=O)oc2cc(N*)ccc12

Legend:
[1] = biological target: T1, BsAcuC (2c) (Bacillus subtilis, UniProt P39067); assay: Dose-response inhibition assay; assay type: biochemical; conditions: dose-response inhibition assay
T1 construct: made in house; host or cells: E. coli BL21 (DE3)
T1 sequence (P39067 1-387): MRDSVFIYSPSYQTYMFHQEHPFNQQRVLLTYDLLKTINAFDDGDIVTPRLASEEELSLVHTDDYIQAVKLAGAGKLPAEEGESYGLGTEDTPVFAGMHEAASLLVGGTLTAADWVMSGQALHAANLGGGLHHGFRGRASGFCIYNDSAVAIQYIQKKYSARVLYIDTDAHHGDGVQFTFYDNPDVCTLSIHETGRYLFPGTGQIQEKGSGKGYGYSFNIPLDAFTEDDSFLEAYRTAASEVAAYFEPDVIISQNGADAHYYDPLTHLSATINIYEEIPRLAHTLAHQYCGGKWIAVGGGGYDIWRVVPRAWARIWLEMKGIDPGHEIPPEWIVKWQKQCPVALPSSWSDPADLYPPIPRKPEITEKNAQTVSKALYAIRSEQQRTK
Source text: Data was transformed to relative enzyme activity (%) compared to control wells without inhibitor, and fitted to sigmoidal functions with variable slope (Eqs. 3, 4 parameters, h: Hill slope) to afford IC50 values. Assuming fast-on/fast-off competitive inhibition, the Cheng–Prusoff equation (Eq. 4) was employed to transform IC50 data into inhibitory constants (Ki), with KM values as determined previously.3 Res.activity=Res.activitybottom+Res.activitytop−Res.activitybottom/1+10^(logIC50−logI)h 4 Ki=IC50/1+[S]/KM

[2] = biological target: T2, KpHdaH (1b) (Klebsiella pneumoniae, UniProt A0A377Z5F6); assay: biochemical; conditions: for IC50: 15 nM enzyme, 60 min, 37 °C
[3] = biological target: T3, LcApaH (3) (Legionella cherrii, UniProt A0A0W0SGS1); assay: biochemical; conditions: for IC50: 0.5 nM enzyme, 30 min, 37 °C
[4] = biological target: T4, LpApaH (3) (Legionella pneumophila, UniProt A0A2S6EWV0); assay: biochemical
[5] = biological target: T5, RwDmhA (1b) (Rhizorhabdus wittichii, UniProt A0A067XIQ6); assay: biochemical; conditions: for IC50: 30 nM enzyme, 60 min, 37 °C
[6] = biological target: T1, BsAcuC (2c); assay: Inhibitor screening assay (10 µM or 1 µM); assay type: biochemical
Source text: Data was transformed to relative enzyme activity (%) compared to control wells without inhibitors.

[7] = biological target: PrpH (propanil hydrolase) of Rhizorhabdus sp. (Rhizorhabdus sp.); assay: crystal structure
[8] = biological target: PsApaH_(1-342) (4) (Pseudomonas sp.); assay: crystal structure
[9] = biological target: Pseudomonas sp. acetylpolyamine amidohydrolase ApaH (Pseudomonas sp.); assay: SEC
[10] = tested on: VsHdaH (1b); assay type: biochemical, Vibrio sp.
[11] = tested on: RsPrpH (1b); assay: Substrate screening assay (acyl-peptide-AMC); assay type: biochemical, Rhizorhabdus sp.
[12] = biological target: T5, RwDmhA (1b); assay type: biochemical
[13] = biological target: T2, KpHdaH (1b); assay type: biochemical
[14] = biological target: T1, BsAcuC (2c); assay: Substrate screening assay (acyl-peptide-AMC); assay type: biochemical
Experimental: (§1) Experiments with SIRT2 and SIRT5 were supplemented with NAD^+ (500 µM). Thereafter, a solution of trypsin (25 µL, 5.0 mg/mL; final concentration of 2.5 mg/mL) was added, and the development of the assay was allowed to proceed for 90 min at room temperature before fluorescence analysis. […] To this end, a single category is given to all conversions >48% on the heatmap. […] For the H4-derived peptide LGKbio no positive control was available.

[15] = tested on: VcHdaH (5b); assay type: biochemical, Vibrio cholerae
[16] = biological target: PsApaH (4) (Pseudomonas sp. M30-35, UniProt A0A1Y0KY79); assay type: biochemical
Experimental: as §1

[17] = biological target: T3, LcApaH (3); assay type: biochemical
[18] = biological target: T4, LpApaH (3); assay type: biochemical
[19] = tested on: Controls; assay type: biochemical
[20] = tested on: Controls; assay type: biochemical; remark: listed apart in the source
[21] = biological target: Δ20-37 KpHdaH (Klebsiella pneumoniae)
[22] = biological target: DmhA (dimethoate hydrolase) of Rhizorhabdus wittichii (Rhizorhabdus wittichii); assay: enzyme kinetics with substrate in
[23] = biological target: Pseudomonas sp. acetylpolyamine amidohydrolase ApaH (Pseudomonas sp.); assay: enzyme kinetics with substrate in
[24] = biological target: T6, Legionella cherrii acetyl-polyamine aminohydrolase (Legionella cherrii); assay: enzyme kinetics with substrate inhibition (Fluor-de-Lys assay)
T6 sequence: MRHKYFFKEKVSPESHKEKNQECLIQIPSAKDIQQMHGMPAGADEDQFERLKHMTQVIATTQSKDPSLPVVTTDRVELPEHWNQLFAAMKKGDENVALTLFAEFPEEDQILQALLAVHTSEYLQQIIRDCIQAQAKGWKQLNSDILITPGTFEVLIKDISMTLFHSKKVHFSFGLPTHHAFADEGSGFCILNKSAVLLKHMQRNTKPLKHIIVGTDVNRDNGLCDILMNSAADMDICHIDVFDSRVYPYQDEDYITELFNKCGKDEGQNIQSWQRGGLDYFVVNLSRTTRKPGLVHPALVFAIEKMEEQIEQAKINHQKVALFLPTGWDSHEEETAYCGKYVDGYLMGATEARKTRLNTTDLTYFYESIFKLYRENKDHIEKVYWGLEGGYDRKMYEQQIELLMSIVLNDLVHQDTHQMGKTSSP

[25] = biological target: T7, Legionella pneumophila acetyl-polyamine aminohydrolase (Legionella pneumophila); assay: as above
T7 sequence: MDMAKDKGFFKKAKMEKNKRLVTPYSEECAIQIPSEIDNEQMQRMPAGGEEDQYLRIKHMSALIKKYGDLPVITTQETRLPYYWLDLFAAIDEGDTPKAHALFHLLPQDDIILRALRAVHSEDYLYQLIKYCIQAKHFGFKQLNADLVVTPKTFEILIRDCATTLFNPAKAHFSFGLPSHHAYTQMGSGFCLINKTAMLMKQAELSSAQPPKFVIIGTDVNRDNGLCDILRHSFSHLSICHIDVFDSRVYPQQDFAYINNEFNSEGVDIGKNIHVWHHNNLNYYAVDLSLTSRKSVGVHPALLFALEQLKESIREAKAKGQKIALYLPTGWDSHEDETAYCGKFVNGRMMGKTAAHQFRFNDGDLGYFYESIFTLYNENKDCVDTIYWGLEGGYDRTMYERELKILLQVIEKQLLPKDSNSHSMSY

[26] = biological target: the molecule itself; assay: crystal structure
[27] = Log[IC50(M)], decadic log of IC50, 60 µM QPKKac
[28] = substrate screening, mean of two measurements
[29] = substrate screening, measurement 1 of two
[30] = substrate screening, measurement 2 of two

## O=C(CCCCCCC(=O)Nc1ccccc1)NO [SAHA, suberoylanilide hydroxamic acid]
[1]
  inhibition of BsAcuC (2c), in words: not detecting any inhibition
[2]; IC50, 60 µM QPKKac
  IC50: 9.71e-08 M
[2]; Ki, calculated using the Cheng–Prusoff equation, 60 µM QPKKac
  Ki: 22.4 nM
[2]; [27]
  IC50: 9.77e-08 M
[3]; IC50, 40 µM LGKac
  IC50: 8.09e-07 M
[3]; Ki, calculated using the Cheng–Prusoff equation, 40 µM LGKac
  Ki: 307 nM
[3]; Log[IC50(M)], decadic log of IC50, 40 µM LGKac
  IC50: 8.13e-07 M
[4]; IC50
  IC50: 6.69e-07 M
[4]; Ki
  Ki: 230 nM
[4]; Log[IC50(M)]
  IC50: 6.61e-07 M
[5]
  Ki: 41.6 nM
[5]; IC50, 60 µM QPKKac
  IC50: 1.01e-07 M
[5]; [27]
  IC50: 1e-07 M
[6]; 1 µM inhibitor, mean of n = 2, 40 µM LGKac
  remaining activity at 1 µM: 84.7%
[6]; 1 µM inhibitor, single measurements (two columns), 40 µM LGKac, 60 min, 37 °C
  remaining activity at 1 µM: 83.2%
[6]; 10 µM inhibitor, mean of n = 2, 40 µM LGKac
  remaining activity at 10 µM: 60.6%
[6]; 10 µM inhibitor, single measurements (two columns), 40 µM LGKac, 60 min, 37 °C
  remaining activity at 10 µM: 56.2%
[6]; BsAcuC (2c), inhibitor 1 µM, individual replicates
  remaining activity at 1 µM: 83.2%
[6]; BsAcuC (2c), inhibitor 1 µM, mean
  remaining activity at 1 µM: 84.7%
[6]; BsAcuC (2c), inhibitor 10 µM, individual replicates
  remaining activity at 10 µM: 56.2%
[6]; BsAcuC (2c), inhibitor 10 µM, mean
  remaining activity at 10 µM: 60.6%
[6]; pre-screening at 10 µM or 1 µM inhibitor
  inhibition of BsAcuC (2c) in the initial screen, in words: only weakly inhibited

## PrpH (propanil hydrolase) of Rhizorhabdus sp. (enzyme)
[7]
  stoichiometry N: 4

## PsApaH_(1-342) (4) (domain or fragment)
[8]
  stoichiometry N: 2

## Pseudomonas sp. acetylpolyamine amidohydrolase ApaH (enzyme)
[9]
  stoichiometry N: 2

## QPKKpal (QPKK-{AMC}; not fully specified (residue 4); printed as QPKKpal; also: palmitoyl-lysine (which Lys not given here); UniProt P04637 317-320, looked up, fragment)
[10]; means of two measurements
  RFU means, VsHdaH (1b): 11 RFU
  RFU*2 means, VsHdaH (1b): 22 RFU*2
[10]; [28]
  [AMC] (nM), VsHdaH (1b), means: 10.74 nM
[10]; [29]
  [AMC] (nM), VsHdaH (1b): 40.04 nM
[10]; [30]
  [AMC] (nM), VsHdaH (1b): -18.55 nM
[11]
  RFU means, RsPrpH (1b): -58.5 RFU
  RFU*2 means, RsPrpH (1b): -117 RFU*2
  [AMC] (nM), RsPrpH (1b), means: -57.13 nM
[12]
  RFU means, RwDmhA (1b): -48 RFU
  RFU*2 means, RwDmhA (1b): -96 RFU*2
  [AMC] (nM), RwDmhA (1b), means: -46.88 nM
[13]; means of two measurements
  RFU means, KpHdaH (1b): 2.5 RFU
  RFU*2 means, KpHdaH (1b): 5 RFU*2
[13]; [28]
  [AMC] (nM), KpHdaH (1b), means: 2.44 nM
[13]; [29]
  [AMC] (nM), KpHdaH (1b): 8.79 nM
[13]; [30]
  [AMC] (nM), KpHdaH (1b): -3.91 nM
[14]; means of two measurements
  RFU means, BsAcuC (2c): 77 RFU
  RFU*2 means, BsAcuC (2c): 154 RFU*2
[14]; [28]
  [AMC] (nM), BsAcuC (2c), means: 75.20 nM
[15]; means of two measurements
  RFU means, VcHdaH (5b): -8.5 RFU
  RFU*2 means, VcHdaH (5b): -17 RFU*2
[15]; [28]
  [AMC] (nM), VcHdaH (5b), means: -8.30 nM
[16]; means of two measurements
  RFU means, PsApaH (4): 27 RFU
  RFU*2 means, PsApaH (4): 54 RFU*2
[16]; [28]
  [AMC] (nM), PsApaH (4), means: 26.37 nM
[16]; [29]
  [AMC] (nM), PsApaH (4): 39.06 nM
[16]; [30]
  [AMC] (nM), PsApaH (4): 13.67 nM
[17]
  RFU means, LcApaH (3): 26.5 RFU
  RFU*2 means, LcApaH (3): 53 RFU*2
  [AMC] (nM), LcApaH (3), means: 25.88 nM
[18]
  RFU means, LpApaH (3): 16 RFU
  RFU*2 means, LpApaH (3): 32 RFU*2
  [AMC] (nM), LpApaH (3), means: 15.63 nM
[19]
  RFU means, controls: 9515.5 RFU
  RFU*2, controls: 16530 RFU*2 and 21532 RFU*2
  RFU*2 means, controls: 19031 RFU*2
  RFU, controls: 8265 RFU and 10766 RFU
[20]
  [AMC] (nM), controls, means: 9292.48 nM

## Δ20-37 KpHdaH (from UniProt A0A377Z5F6 1-371) (enzyme)
[21]
  stoichiometry N: 2

B1: p53-peptide QPKKac (peptide)
peptide: QPKK
[22]
  Ki: 154000 nM
[23]
  Ki: 122000 nM
[24]
  Ki: 13000 nM
[25]
  Ki: 44000 nM

B2: Klebsiella pneumoniae HdaH (enzyme, UniProt A0A377Z5F6 1-371, looked up)
chain: MKRKTGFFFDERCFWHSTGLHAVTLPVGGWVQPPAGGGHAESPETKRRMKNLMDVSGLTPQLALRSAAPASLEDLRRIHPDSYLERFKAISDNGGGMLGKEAPLGPGSYEIACLSAGLACAAVEAVLKGELDNAYSLSRPPGHHCLPDQSMGFCFLANIPIAVERAKAQLGLGKVAIIDWDVHHGNGTQHIYLQRDDVLTISLHQDGCFPPGYAGEDDRGVGAGEGYNINIPLLAGAGDDSWRYALETIVIPALARFEPELIIIACGYDANAMDPLARMQLHSDSFRAMTEQVQQAADRLCGGKLVMVHEGGYAESYVPFCGLAVMEALSGIRTEVQDPLLEFIQQQQPRATFAQFQRQAIDRLAQQFGLQ
notes: also called KpHdaH (1b); KpHdaH
[26]
  stoichiometry N: 4

B3: DmhA (dimethoate hydrolase) of Rhizorhabdus wittichii (enzyme)
chain: MARTGFYTDERTFWHATGMQALFLPVGDWVQPPNGTAGADTPDSKRRLLNLAHASGLIRKLTLPEAIPATVEDVCRVHPRDYIDRFKATSDAGGGDLGHLAPFSKGGYEIAMLSCGLAIAAVDDVLSGKVDNAYALCRPAGHHCLADTPMGFCLLANIPIAIEAAKARHGISRVAVVDWDVHHGNGTQSIFYDRADVLTISIHQDRCFPPGYSGAEDRGEGAGLGYNLNVPLPAGAGHDAYVQAFDDIVVPALDDFKPDLIIVASGLDANSVDPLARMLLHSESYRLLTQKMLDAAARLCGGKLVVVHEGGYAEAYVPFCGHALLEALSGERTAVVDPVLEMAEAWQPGPEAAAFHRQWIDRLVADLGK
notes: also called RwDmhA (1b); RwDmhA
[26]
  stoichiometry N: 4
